Reference: paper PMC9963398, “Discovery of New Quinolone-Based Diarylamides as Potent B-RAF^V600E/C-RAF Kinase Inhibitors Endowed with Promising In Vitro Anticancer Activity” (International Journal of Molecular Sciences, 2023)

Key:
B-RAF^V600E = target: T1, B-RAF^V600E (Homo sapiens, UniProt P15056, V600E); experiment: HotSpot kinase assay (RBC), B-RAF^V600E; assay type: biochemical; conditions: 10 µM ATP, 10-dose singlicate IC50 mode
T1 construct: purchased Reaction Biology Corporation (RBC), Kinase HotSpot service
T1 sequence (P15056 whole entry V600E): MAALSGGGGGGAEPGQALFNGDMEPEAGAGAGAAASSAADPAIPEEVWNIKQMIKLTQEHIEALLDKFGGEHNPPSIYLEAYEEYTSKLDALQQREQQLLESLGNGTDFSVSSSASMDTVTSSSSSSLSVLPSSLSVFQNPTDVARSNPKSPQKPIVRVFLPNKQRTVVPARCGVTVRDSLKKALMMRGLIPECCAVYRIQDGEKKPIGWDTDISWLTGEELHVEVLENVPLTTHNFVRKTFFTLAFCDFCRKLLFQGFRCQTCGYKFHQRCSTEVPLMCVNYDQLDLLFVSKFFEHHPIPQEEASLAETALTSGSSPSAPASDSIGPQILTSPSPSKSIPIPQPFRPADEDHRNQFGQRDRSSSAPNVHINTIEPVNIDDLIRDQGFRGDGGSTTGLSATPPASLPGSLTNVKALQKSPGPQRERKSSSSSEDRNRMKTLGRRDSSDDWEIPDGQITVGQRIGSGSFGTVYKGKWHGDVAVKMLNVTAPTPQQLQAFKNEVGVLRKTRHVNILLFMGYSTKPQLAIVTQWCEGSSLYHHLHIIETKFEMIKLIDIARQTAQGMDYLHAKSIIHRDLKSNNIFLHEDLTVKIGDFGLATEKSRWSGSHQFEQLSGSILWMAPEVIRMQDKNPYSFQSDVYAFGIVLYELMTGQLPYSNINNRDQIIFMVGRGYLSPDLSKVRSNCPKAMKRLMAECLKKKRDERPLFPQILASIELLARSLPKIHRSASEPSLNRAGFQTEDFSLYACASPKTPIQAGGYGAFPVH

786-0 = experiment: NCI-60 five-dose SRB assay; assay type: cell-based; conditions: Homo sapiens; 786-0, Renal cancer, five-dose test
Protocol: (§1) The anticancer screening of target compounds over a full panel of 60 human cancer cell lines was carried out using Sulforhodamine B (SRB) assay at the National Cancer Institute (NCI), Bethesda, Maryland, USA, employing the standard protocol.

A498 = experiment: NCI-60 five-dose SRB assay; assay type: cell-based; conditions: Homo sapiens; A498, Renal cancer, five-dose test
Protocol: as §1

A549/ATCC = experiment: NCI-60 five-dose SRB assay; assay type: cell-based; conditions: Homo sapiens, NSCL cancer, five-dose test
Protocol: as §1

ACHN = experiment: NCI-60 five-dose SRB assay; assay type: cell-based; conditions: Homo sapiens, Renal cancer, five-dose test
Protocol: as §1

BT-549 = experiment: NCI-60 five-dose SRB assay; assay type: cell-based; conditions: Homo sapiens; BT-549, Breast cancer, five-dose test
Protocol: as §1

CCRF-CEM = experiment: NCI-60 five-dose SRB assay; assay type: cell-based; conditions: Homo sapiens, Leukemia, five-dose test
Protocol: as §1

COLO 205 = experiment: NCI-60 five-dose SRB assay; assay type: cell-based; conditions: Homo sapiens; COLO 205, Colon cancer, five-dose test
Protocol: as §1

DU-145 = experiment: NCI-60 five-dose SRB assay; assay type: cell-based; conditions: Homo sapiens; DU-145, Prostate cancer, five-dose test
Protocol: as §1

EKVX = experiment: NCI-60 five-dose SRB assay; assay type: cell-based; conditions: Homo sapiens, NSCL cancer, five-dose test
Protocol: as §1

HCT-116 = experiment: NCI-60 five-dose SRB assay; assay type: cell-based; conditions: Homo sapiens; HCT-116, Colon cancer, five-dose test
Protocol: as §1

HCT-15 = experiment: NCI-60 five-dose SRB assay; assay type: cell-based; conditions: Homo sapiens; HCT-15, Colon cancer, five-dose test
Protocol: as §1

HOP-62 = experiment: NCI-60 five-dose SRB assay; assay type: cell-based; conditions: Homo sapiens; HOP-62, NSCL cancer, five-dose test
Protocol: as §1

IGROV1 = experiment: NCI-60 five-dose SRB assay; assay type: cell-based; conditions: Homo sapiens, IGROV-1; IGROV1, Ovarian cancer, five-dose test
Protocol: as §1

K-562 = experiment: NCI-60 five-dose SRB assay; assay type: cell-based; conditions: Homo sapiens, K562; K-562, Leukemia, five-dose test
Protocol: as §1

KM12 = experiment: NCI-60 five-dose SRB assay; assay type: cell-based; conditions: Homo sapiens; KM12, Colon cancer, five-dose test
Protocol: as §1

MALME-3M = experiment: NCI-60 five-dose SRB assay; assay type: cell-based; conditions: Homo sapiens, Melanoma, five-dose test
Protocol: as §1

MCF7 = experiment: NCI-60 five-dose SRB assay; assay type: cell-based; conditions: Homo sapiens; MCF7, Breast cancer, five-dose test
Protocol: as §1

NCI-H226 = experiment: NCI-60 five-dose SRB assay; assay type: cell-based; conditions: Homo sapiens; NCI-H226, NSCL cancer, five-dose test
Protocol: as §1

NCI-H23 = experiment: NCI-60 five-dose SRB assay; assay type: cell-based; conditions: Homo sapiens; NCI-H23, NSCL cancer, five-dose test
Protocol: as §1

NCI-H460 = experiment: NCI-60 five-dose SRB assay; assay type: cell-based; conditions: Homo sapiens; NCI-H460, NSCL cancer, five-dose test
Protocol: as §1

NCI-H522 = experiment: NCI-60 five-dose SRB assay; assay type: cell-based; conditions: Homo sapiens; NCI-H522, NSCL cancer, five-dose test
Protocol: as §1

OVCAR-3 = experiment: NCI-60 five-dose SRB assay; assay type: cell-based; conditions: Homo sapiens; OVCAR-3, Ovarian cancer, five-dose test
Protocol: as §1

OVCAR-4 = experiment: NCI-60 five-dose SRB assay; assay type: cell-based; conditions: Homo sapiens; OVCAR-4, Ovarian cancer, five-dose test
Protocol: as §1

OVCAR-5 = experiment: NCI-60 five-dose SRB assay; assay type: cell-based; conditions: Homo sapiens; OVCAR-5, Ovarian cancer, five-dose test
Protocol: as §1

OVCAR-8 = experiment: NCI-60 five-dose SRB assay; assay type: cell-based; conditions: Homo sapiens; OVCAR-8, Ovarian cancer, five-dose test
Protocol: as §1

RPMI-8226 = experiment: NCI-60 five-dose SRB assay; assay type: cell-based; conditions: Homo sapiens; RPMI-8226, Leukemia, five-dose test
Protocol: as §1

RXF 393 = experiment: NCI-60 five-dose SRB assay; assay type: cell-based; conditions: Homo sapiens; RXF 393, Renal cancer, five-dose test
Protocol: as §1

SF-268 = experiment: NCI-60 five-dose SRB assay; assay type: cell-based; conditions: Homo sapiens; SF-268, CNS cancer, five-dose test
Protocol: as §1

SK-MEL-28 = experiment: NCI-60 five-dose SRB assay; assay type: cell-based; conditions: Homo sapiens; SK-MEL-28, Melanoma, five-dose test
Protocol: as §1

SK-MEL-5 = experiment: NCI-60 five-dose SRB assay; assay type: cell-based; conditions: Homo sapiens; SK-MEL-5, Melanoma, five-dose test
Protocol: as §1

SK-OV-3 = experiment: NCI-60 five-dose SRB assay; assay type: cell-based; conditions: Homo sapiens; SK-OV-3, Ovarian cancer, five-dose test
Protocol: as §1

SN12C = experiment: NCI-60 five-dose SRB assay; assay type: cell-based; conditions: Homo sapiens, Renal cancer, five-dose test
Protocol: as §1

SNB-75 = experiment: NCI-60 five-dose SRB assay; assay type: cell-based; conditions: Homo sapiens; SNB-75, CNS cancer, five-dose test
Protocol: as §1

SR = experiment: NCI-60 five-dose SRB assay; assay type: cell-based; conditions: Homo sapiens, Leukemia, five-dose test
Protocol: as §1

SW-620 = experiment: NCI-60 five-dose SRB assay; assay type: cell-based; conditions: Homo sapiens; SW-620, Colon cancer, five-dose test
Protocol: as §1

T-47D = experiment: NCI-60 five-dose SRB assay; assay type: cell-based; conditions: Homo sapiens, T47D, Breast cancer, five-dose test
Protocol: as §1

UACC-257 = experiment: NCI-60 five-dose SRB assay; assay type: cell-based; conditions: Homo sapiens; UACC-257, Melanoma, five-dose test
Protocol: as §1

UACC-62 = experiment: NCI-60 five-dose SRB assay; assay type: cell-based; conditions: Homo sapiens; UACC-62, Melanoma, five-dose test
Protocol: as §1

MDA-MB-231/ATCC = experiment: cells; conditions: Homo sapiens
Protocol: as §1

MDA-MB-468 = experiment: cells; conditions: Homo sapiens
Protocol: as §1

PC-3 = experiment: cells; conditions: Homo sapiens
Protocol: as §1

## CCN1CCN(Cc2ccc(C(=O)Nc3cccc(Nc4ccc5c(OC)cccc5n4)c3)cc2C(F)(F)F)CC1 [Compound 14c, 4-((4-ethylpiperazin-1-yl)methyl)-N-(3-((5-methoxyquinolin-2-yl)amino)phenyl)-3-(trifluoromethyl)benzamide]
B-RAF^V600E
  IC50: 0.619 ± 0.0027 µM
786-0
  GI50: 1.41 µM
A498
  GI50: 11.8 µM
A549/ATCC
  GI50: 2.5 µM
ACHN
  GI50: 1.85 µM
BT-549
  GI50: 5.35 µM
CCRF-CEM
  GI50: 1.97 µM
COLO 205
  GI50: 1.74 µM
DU-145
  GI50: 2.55 µM
EKVX
  GI50: 4.06 µM
HCT-116
  GI50: 1.45 µM
HCT-15
  GI50: 1.58 µM
HOP-62
  GI50: 3.67 µM
IGROV1
  GI50: 3.09 µM
K-562
  GI50: 2.11 µM
KM12
  GI50: 2.2 µM
MALME-3M
  GI50: 1.44 µM
MCF7
  GI50: 1.5 µM
NCI-H226
  GI50: 5.53 µM
NCI-H23
  GI50: 2.37 µM
NCI-H460
  GI50: 1.47 µM
NCI-H522
  GI50: 1.7 µM
OVCAR-3
  GI50: 1.8 µM
OVCAR-4
  GI50: 2.89 µM
OVCAR-5
  GI50: 3.28 µM
OVCAR-8
  GI50: 6.78 µM
RPMI-8226
  GI50: 2.24 µM
RXF 393
  GI50: 1.63 µM
SF-268
  GI50: 2.17 µM
SK-MEL-28
  GI50: 1.56 µM
SK-MEL-5
  GI50: 1.45 µM
SK-OV-3
  GI50: 12.6 µM
SN12C
  GI50: 3.62 µM
SNB-75
  GI50: 1.2 µM
SR
  GI50: 1.87 µM
SW-620
  GI50: 1.45 µM
T-47D
  GI50: 2.11 µM
UACC-257
  GI50: 1.51 µM
UACC-62
  GI50: 1.53 µM
MDA-MB-231/ATCC
  GI50: 1.54 µM
MDA-MB-468
  GI50: 1.6 µM
PC-3
  GI50: 2.14 µM

## COc1cccc2nc(Nc3ccc(F)c(NC(=O)c4ccc(CN5CCN(C)CC5)c(C(F)(F)F)c4)c3)ccc12 [Compound 15a, N-(2-fluoro-5-((5-methoxyquinolin-2-yl)amino)phenyl)-4-((4-methylpiperazin-1-yl)methyl)-3-(trifluoromethyl)benzamide]
B-RAF^V600E
  IC50: 0.314 ± 0.0229 µM
786-0
  GI50: 12.5 µM
A498
  GI50: 16.9 µM
A549/ATCC
  GI50: 12.2 µM
ACHN
  GI50: 16.5 µM
BT-549
  GI50: 10.5 µM
CCRF-CEM
  GI50: 9.71 µM
COLO 205
  GI50: 17.2 µM
DU-145
  GI50: 12.9 µM
EKVX
  GI50: 14.7 µM
HCT-116
  GI50: 8.75 µM
HCT-15
  GI50: 13.4 µM
HOP-62
  GI50: 14.5 µM
IGROV1
  GI50: 14.5 µM
K-562
  GI50: 3.59 µM
KM12
  GI50: 15.4 µM
MALME-3M
  GI50: 11.7 µM
MCF7
  GI50: 12.3 µM
NCI-H226
  GI50: 11.1 µM
NCI-H23
  GI50: 15.5 µM
NCI-H460
  GI50: 15.9 µM
NCI-H522
  GI50: 16 µM
OVCAR-3
  GI50: 14.4 µM
OVCAR-4
  GI50: 13.9 µM
OVCAR-5
  GI50: 16.1 µM
OVCAR-8
  GI50: 15.8 µM
RPMI-8226
  GI50: 9.3 µM
RXF 393
  GI50: 3.71 µM
SF-268
  GI50: 11.1 µM
SK-MEL-28
  GI50: 15.3 µM
SK-MEL-5
  GI50: 15.5 µM
SK-OV-3
  GI50: 15.7 µM
SN12C
  GI50: 13.4 µM
SNB-75
  GI50: 9.09 µM
SR
  GI50: 9.83 µM
SW-620
  GI50: 16.9 µM
T-47D
  GI50: 14.8 µM
UACC-257
  GI50: 16.3 µM
UACC-62
  GI50: 16.2 µM
MDA-MB-231/ATCC
  GI50: 12.1 µM
MDA-MB-468
  GI50: 4.79 µM
PC-3
  GI50: 12 µM
